A word on the IC50: it is the concentration needed to halve the response being measured. A low value points to greater potency in that assay.

The structures appear in SMILES notation. Where a name gives a salt, the structure may show the parent alone.

The target in the first assay is T1, IRAK4 (Homo sapiens, UniProt Q9NWZ3).
T1 sequence (Q9NWZ3 1-460): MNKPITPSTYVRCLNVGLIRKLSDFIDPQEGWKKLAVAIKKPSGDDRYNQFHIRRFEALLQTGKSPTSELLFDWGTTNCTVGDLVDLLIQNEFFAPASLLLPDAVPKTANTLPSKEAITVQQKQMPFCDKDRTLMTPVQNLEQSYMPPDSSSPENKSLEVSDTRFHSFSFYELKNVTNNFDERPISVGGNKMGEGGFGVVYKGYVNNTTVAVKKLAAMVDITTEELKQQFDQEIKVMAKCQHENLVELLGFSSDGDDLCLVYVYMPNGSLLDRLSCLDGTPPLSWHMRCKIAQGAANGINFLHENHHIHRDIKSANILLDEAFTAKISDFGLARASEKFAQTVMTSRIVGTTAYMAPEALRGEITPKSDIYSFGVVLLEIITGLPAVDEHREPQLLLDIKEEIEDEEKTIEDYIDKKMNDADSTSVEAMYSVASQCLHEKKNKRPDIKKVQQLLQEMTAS
The assay is described as follows: biochemical.
Conditions: not given
In turn, `CC(C)Oc1cc2nc(C34COC(C)(C3)C4)c(Cl)n2cc1C(=O)Nc1cccc(C(F)F)n1` [Example 229, 3-Chloro-N-(6-(difluoromethyl)pyridin-2-yl)-7-isopropoxy-2-(1-methyl-2-oxabicyclo[2.1.1]hexan-4-yl)imidazo[1,2-a]pyridine-6-carboxamide] returned a half-inhibitory concentration (IC50) of 0.0393 µM.
Same read-out and setting: the same measure for `COc1nc(C(=O)Nc2cccc(C(F)F)n2)cn2cc(C34COC(C)(C3)C4)nc12` [Example 231, N-(6-(difluoromethyl)pyridin-2-yl)-8-methoxy-2-(1-methyl-2-oxabicyclo[2.1.1]hexan-4-yl)imidazo[1,2-a]pyrazine-6-carboxamide]: 0.0071 µM; for `COc1ncccc1NC(=O)c1cn2cc(C34COC(C)(C3)C4)nc2c(OC)n1` [Example 232]: 0.0031 µM.
Molecule `COc1cc2nc(C34CCOC(C)(C3)C4)cn2cc1C(=O)Nc1cccc(C(F)F)n1` [Example 233] returned an IC50 of 0.0025 µM.
Molecule `COc1nc(C(=O)Nc2cccc(C(F)F)n2)cn2cc(C34CCOC(C)(C3)C4)nc12` [Example 234] came in with an IC50 of 0.0053 µM.
The same measure, in the same setting: the figure for `COc1ncccc1NC(=O)c1cn2cc(C34CCOC(C)(C3)C4)nc2c(OC)n1` [Example 235] is 0.0035 µM; for `CC(C)Oc1nc2nc(C34CCOC(C)(C3)C4)cn2cc1C(=O)Nc1cccc(C(F)F)n1` [Example 236] it is 0.0002 µM.
`CC(C)Oc1nc2nc(C34CCOC(C)(C3)C4)cn2cc1C(=O)Nc1cccc(C(F)(F)F)n1` [Example 237]: it took 0.0003 µM to reach half-maximal inhibition (IC50).
For the molecule `COc1nc(C(=O)Nc2cccc(C(F)(F)F)n2)cn2cc(C34CCOC(C)(C3)C4)nc12` [Example 238], it took 0.0064 µM to reach half-maximal inhibition (IC50).
Still for that read-out and setting: the same measure for `COc1ncccc1NC(=O)c1cn2cc(C34CCC(C)(C3)OC4)nc2c(OC(C)C)n1` (stereo not drawn) [Example 239]: 0.0008 µM.
For `CC(C)Oc1nc(C(=O)Nc2ccn(C)n2)cn2cc(C34CCC(C)(C3)OC4)nc12` (stereo not drawn) [Example 240], the IC50 came out at 0.0023 µM. Against the preceding molecule, the IC50 is about 2.9-fold higher.
The same measure, in the same setting: the figure for `CCOc1nc2nc(C34COC(C)(C3)C4)cn2cc1C(=O)Nc1cccc(C(F)F)n1` [Example 241] is 0.0015 µM; for `CCOc1nc2nc(C34COC(C)(C3)C4)cn2cc1C(=O)Nc1cccnc1OC` [Example 242] it is 0.0013 µM; for `CC(C)Oc1cc2nc(C34CCC(C)(C3)OC4)cn2cc1C(=O)Nc1cccc(C(F)F)n1` (stereo not drawn) [Example 243] it is 0.0002 µM.
With `CC(C)Oc1cc2nc(C34COC(C)(C3)C4)cn2cc1C(=O)Nc1ccc(F)cn1` [Example 244], half-maximal inhibition (IC50) was put at 0.0059 µM.
For `CC(C)Oc1cc2nc(C34COC(C)(C3)C4)cn2cc1C(=O)Nc1cccc(C(F)(F)F)n1` [Example 245], the IC50 came out at 0.0003 µM.
In the case of `CC(C)Oc1cc2nc(C34CCC(C3)OC4)cn2cc1C(=O)Nc1cccc(C(F)F)n1` (stereo not drawn) [Example 246], the half-maximal inhibitory concentration (IC50) is 0.0002 µM.
Regarding `CC(C)Oc1nc2nc(C34CCC(C)(C3)OC4)cn2cc1C(=O)Nc1cccc(C(F)F)n1` (stereo not drawn) [Example 247], the IC50 was 0.0002 µM.
On the same count and under the same terms, the same measure for `COc1ncccc1NC(=O)c1cn2cc(C34CCC(C)(C3)OC4)nc2nc1OC(C)C` (stereo not drawn) [Example 248]: 0.0002 µM; for `COc1ncccc1NC(=O)c1cn2cc(C34CCC(C3)OC4)nc2cc1OC(C)C` (stereo not drawn) [Example 249]: 0.0007 µM; for `CC(C)Oc1cc2nc(C34CCC(C)(C3)OC4)cn2cc1C(=O)Nc1cnn2c1OCCC2` (stereo not drawn) [Example 250]: 0.0013 µM.
The molecule `CC12CCC(c3cn4cc(C(=O)Nc5cccc(C(F)F)n5)cc(OC(F)F)c4n3)(CO1)C2` (stereo not drawn) [Example 251] yielded an IC50 of 0.0153 µM.
Molecule `COc1cccc(NC(=O)c2cn3cc(C4C5COCC54)nc3cc2OC(C)C)n1` (stereo not drawn) [Example 254, 2-(3-Oxabicyclo[3.1.0]hexan-6-yl)-7-isopropoxy-N-(6-methoxypyridin-2-yl)imidazo[1,2-a]pyridine-6-carboxamide] came in with an IC50 of 0.001 µM.
In the case of `CC(C)Oc1c(C(=O)Nc2cccn(C)c2=O)cn2cc(C34COC(C)(C3)C4)nc2c1Cl` [Example 255, 8-Chloro-7-isopropoxy-N-(1-methyl-2-oxo-1,2-dihydropyridin-3-yl)-2-(1-methyl-2-oxabicyclo[2.1.1]hexan-4-yl)imidazo[1,2-a]pyridine-6-carboxamide], the IC50 was determined as 0.158 µM. This IC50 lies about 160-fold higher than the previous one.
For the molecule `Cc1cnc2c(NC(=O)c3cn4cc(C56COC(C)(C5)C6)nc4c(F)c3OC3CCC3)cnn2c1` [Example 256, 7-Cyclobutoxy-8-fluoro-2-(1-methyl-2-oxabicyclo[2.1.1]hexan-4-yl)-N-(6-methylpyrazolo[1,5-a]pyrimidin-3-yl)imidazo[1,2-a]pyridine-6-carboxamide], the IC50 came to 0.0009 µM. Against the preceding molecule, the IC50 is about 180-fold lower.
On the same count and under the same terms, the figure for `CC(C)Oc1cc2nc(C34COC(C)(C3)C4)cn2cc1C(=O)Nc1ccnc(C(F)F)c1` [Example 258, N-(2-(difluoromethyl)pyridin-4-yl)-7-isopropoxy-2-(1-methyl-2-oxabicyclo[2.1.1]hexan-4-yl)imidazo[1,2-a]pyridine-6-carboxamide] is 0.0596 µM; for `Cc1cccc(NC(=O)c2cn3cc(C45COC(C)(C4)C5)nc3cc2OC(C)C)n1` [Example 259, 7-Isopropoxy-2-(1-methyl-2-oxabicyclo[2.1.1]hexan-4-yl)-N-(6-methylpyridin-2-yl)imidazo[1,2-a]pyridine-6-carboxamide] it is 0.0005 µM; for `CC(C)Oc1cc2nc(C34COC(C)(C3)C4)cn2cc1C(=O)Nc1cc(C#N)cn(C)c1=O` [Example 262, N-(5-cyano-1-methyl-2-oxo-1,2-dihydropyridin-3-yl)-7-isopropoxy-2-(1-methyl-2-oxabicyclo[2.1.1]hexan-4-yl)imidazo[1,2-a]pyridine-6-carboxamide] it is 0.028 µM.
On the same count and under the same terms, the same measure for `Cc1ccn2ncc(NC(=O)c3cn4cc(C56COC(C)(C5)C6)nc4cc3OC(C)C)c2n1` [Example 263, 7-Isopropoxy-2-(1-methyl-2-oxabicyclo[2.1.1]hexan-4-yl)-N-(5-methylpyrazolo[1,5-a]pyrimidin-3-yl)imidazo[1,2-a]pyridine-6-carboxamide]: 0.0002 µM; for `CC(C)Oc1cc2nc(C34COC(C)(C3)C4)cn2cc1C(=O)Nc1cnn2ccc(Cl)nc12` [Example 264, N-(5-chloropyrazolo[1,5-a]pyrimidin-3-yl)-7-isopropoxy-2-(1-methyl-2-oxabicyclo[2.1.1]hexan-4-yl)imidazo[1,2-a]pyridine-6-carboxamide]: 0.0002 µM.
The molecule `CC(C)Oc1cc2nc(Cl)cn2cc1C(=O)Nc1cccc(C(F)F)n1` [Example 265, 2-Chloro-N-(6-(difluoromethyl)pyridin-2-yl)-7-isopropoxyimidazo[1,2-a]pyridine-6-carboxamide] registered an IC50 of 0.0067 µM.
For `CC(C)(C)c1cn2cc(C(=O)Nc3cccc(C(F)F)n3)c(OC3CCC3)cc2n1` [Example 267, 2-(tert-Butyl)-7-cyclobutoxy-N-(6-(difluoromethyl)pyridin-2-yl)imidazo[1,2-a]pyridine-6-carboxamide], the midpoint of inhibition, the IC50, lay at 0.002 µM.

Staying with this assay, now noted: IRAK4 Biochemical Assay (1 mM ATP, 2 h) IC50 (μM), 1 mM ATP, 2 h, 100 pM IRAK4.
`CC(C)Oc1c(C(=O)Nc2cccc(C(F)(F)F)n2)cn2cc(C34COC(C)(C3)C4)nc2c1F` [Example 230, 8-Fluoro-7-isopropoxy-2-(1-methyl-2-oxabicyclo[2.1.1]hexan-4-yl)-N-(6-(trifluoromethyl)pyridin-2-yl)imidazo[1,2-a]pyridine-6-carboxamide trifluoroacetate] returned an IC50 of 0.003 µM.
`COc1ncccc1NC(=O)c1cn2cc(C34CC(OC)(C3)C4)nc2cc1OC(C)C` [Example 252, 7-Isopropoxy-2-(3-methoxybicyclo[1.1.1]pentan-1-yl)-N-(2-methoxypyridin-3-yl)imidazo[1,2-a]pyridine-6-carboxamide trifluoroacetate] showed an IC50 of 0.0004 µM.
The same measure, in the same setting: the figure for `CC(C)Oc1cc2nc(C3C4COCC43)cn2cc1C(=O)Nc1cccc(C(F)F)n1` (stereo not drawn) [Example 253, 2-(3-Oxabicyclo[3.1.0]hexan-6-yl)-N-(6-(difluoromethyl)pyridin-2-yl)-7-isopropoxyimidazo[1,2-a]pyridine-6-carboxamide hydrochloride] is 0.0004 µM; for `CC(C)Oc1cc2nc(C34COC(C)(C3)C4)cn2cc1C(=O)Nc1cccc(C#N)c1F` [Example 257, N-(3-cyano-2-fluorophenyl)-7-isopropoxy-2-(1-methyl-2-oxabicyclo[2.1.1]hexan-4-yl)imidazo[1,2-a]pyridine-6-carboxamide trifluoroacetate] it is 0.0003 µM.
Still for that read-out and setting: the figure for `CC(C)Oc1cc2nc(C34COC(C)(C3)C4)cn2cc1C(=O)Nc1cccc(N(C)C)n1` [Example 260, N-(6-(dimethylamino)pyridin-2-yl)-7-isopropoxy-2-(1-methyl-2-oxabicyclo[2.1.1]hexan-4-yl)imidazo[1,2-a]pyridine-6-carboxamide 2,2,2-trifluoroacetate] is 0.0005 µM.
In turn, `CC(C)Oc1cc2nc(C34COC(C)(C3)C4)cn2cc1C(=O)Nc1cncn(C)c1=O` [Example 261, 7-Isopropoxy-N-(1-methyl-6-oxo-1,6-dihydropyrimidin-5-yl)-2-(1-methyl-2-oxabicyclo[2.1.1]hexan-4-yl)imidazo[1,2-a]pyridine-6-carboxamide 2,2,2-trifluoroacetate] came in with an IC50 of 0.0047 µM.
The molecule `CC(C)(C)c1cn2cc(C(=O)Nc3cnn4cccnc34)c(OC3CCC3)cc2n1` [Example 266, 2-(tert-Butyl)-7-cyclobutoxy-N-(pyrazolo[1,5-a]pyrimidin-3-yl)imidazo[1,2-a]pyridine-6-carboxamide trifluoroacetate] showed a concentration for half-maximal inhibition (IC50) of 0.0013 µM.

Values taken from patent US20230087118A1, “IMIDAZO[1,2-a][sequence] DERIVATIVES AND THEIR USE IN THE TREATMENT OF DISEASE” (priority 2019, published 2023).
